Source: publication PMC10108821, “Three tyrosine kinase inhibitors cause cardiotoxicity by inducing endoplasmic reticulum stress and inflammation in cardiomyocytes” (BMC Medicine, 2023)

Tests used:
[1] = tested on: Phospho-eIF2α, XBP1s, ATF6 (cleaved); assay: Western blot of ER stress effectors in NRCMs; type: cell-based, rat
Description: Cells were homogenized in the RIPA lysis buffer (Applygen) containing protease and phosphatase inhibitor cocktails (Bimake). The extract was spun at 12,000xg for 20min at 4°C. Total protein was measured by BCA (Thermofisher) and resolved by sodium dodecyl sulfate–polyacrylamide gel electrophoresis (SDS-PAGE). Proteins were blotted to polyvinylidene difluoride membranes (Amersham). Blots were blocked with non-fat milk (BBI Life Sciences) and incubated with antibodies against ATF6 (proteintech), phospho-eIF2α (ABclonol), XBP1 (ABclonol) and GAPDH (proteintech). Goat anti-rabbit IgG, goat anti-mouse IgG were incubated with the blots for 1 hour at room temperature. After 3 washes with 1xTBST (50 mM Tris-Cl, 150 mM NaCl, 0.1% Tween 20, pH 7.5), the blots were developed with the ECL Plus Kit (Absin). Relative protein expression was quantified by optical density and normalized to GAPDH.

NRCMs [2] = assay: Seahorse assay: oxygen consumption and extracellular acidification; type: cell-based, rat; settings: 24 h; fixed doses: 10 µM, crizotinib and ponatinib 3.16 µM
Description: (§1) Rats were euthanized by decapitation and thoracic cavity was opened with scissors and hearts were popped out of the opening gently with fingers. Hearts were clipped and put in HBSS immediately; 20–40 hearts were collected into one sterile vial containing a magnetic stir bar and 1 mL digestive media made of 0.1% trypsin (Macklin) and 0.05% collagenase (Gibco) in HBSS. Hearts were minced until they were uniform in size. Digestive media was added to 10 mL for 40 hearts and stirred gently for 6 min. Supernatant was discarded and the digestion was repeated once; 10 mL digestive media was added and stirred gently for 10 min. The supernatant with cells were collected and the digestion and collection were repeated 4 times. Cells were centrifuged at 1200 rpm for 5 min, resuspended in media (Dulbecco’s modified Eagleʼs medium (Gibco)) with 10% fetal bovine serum (FBS; VISTECH), 1% penicillin–streptomycin, and 1% 0.1 M 5-bromo-2-deoxyuridine solution (Shanghai Yuanye) and filtered through a 40-μm cell strainer. Cells were seeded on a 100-mm plastic dish and cultured in a 5% CO2 incubator at 37 °C for 2 h to allow non-myocytes to adhere to the plate. The dish was swirled and media gently pipetted up and down to detach lightly attached cardiomyocytes. The collected myocytes were seeded in the same media described before; 48 h after plating, medium was exchanged to fresh DMEM (Gibco) with or without 2% FBS. All drug treatments were performed after this media change.
NRCMs were seeded evenly into the Seahorse XF96 cell culture plates (Agilent) and cultured in DMEM high glucose with 2% FBS. About 2 hours before the test, cells were moved to a non-CO2 incubator at 37 ° C and incubated for 1 hour. 1 hour prior to the test, culture media was replaced with the Seahorse Basal DMEM at 37°C (with appropriate concentration of glucose, 4mM L-glutamine, 1 mM sodium pyruvate and 1% penicillin-streptomycin solution) and incubated in a non-CO2 incubator at 37°C for 1 hour. Drugs were prepared at 8x to 10x concentrations with the corresponding seahorse media as in each well and added into ports of Seahorse XF96 cartridge plates which have been hydrated overnight. XFe96 Extracellular Flux Analyzer (Agilent) was used to measure oxygen consumption rate and extracellular acidification rate of cells with different drug treatments.

HELP hiPSC-CMs = assay: CardioExcyte 96 microelectrode array: base impedance and extracellular field potential; type: cell-based, human; settings: fixed doses: 10 µM, crizotinib and ponatinib 3.16 µM; up to 24 h
Description: HELP hiPSC-CMs were seeded evenly into the 96-well microelectrode array, NSP-96 0.6mm sensor plate (Nanion technologies), at 50,000 cells per well. Measurements were started after 3-5 days of culture of these cells and until the impedance and the extracellular field potential are stable. Measurements were taken a few times before drug addition, and every 30~60 minutes after the drugs were added at 2x concentration. Values were averaged from 3 wells per group. Beat rate, amplitude of impedance, base impedance and FPDc were calculated by the Cardio Excyte Control 96 software package (Nanion Technologies).

[3] = in vivo; cited from earlier work
NRCMs [4] = assay: ROS by H2DCFDA staining and flow cytometry; settings: 3 h; 10 µM afatinib, 10 µM sorafenib, 5.62 µM ponatinib
Description: (§2) For ROS assessment, cells were washed with PBS once and stained with 10μM H2DCFHDA (MCE) in phenol red-free DMEM (Procell) in a humid incubator with 5% CO2 at 37°C for 30 minutes. Cells were washed with PBS twice and dissociated to single cells before flow cytometry analysis at the FITC channel. For lipid peroxidation measurement, cells were washed with PBS once and stained with 2μM C11-bodipy^581/591 (Cayman) in phenol red-free DMEM (Procell) in a humid incubator with 5% CO2 at 37°C for 30 minutes. Cells were washed with PBS twice and dissociated to single cells before flow cytometry analysis at both the FITC and the PE channels. Fluorescence of the oxidized C11-bodipy were acquired through the FITC channel (Ex/Em=488/520nm) and that of the non-oxidized C11-bodipy through the PE channel (Ex/Em=555/624nm).

ER stress genes in NRCMs = assay: qRT-PCR of ER stress genes in NRCMs; type: cell-based, rat
Description: as §1, with “The collected myocytes were seeded in the same media described before; 48 h after plating, medium was exchanged to fresh DMEM (Gibco) with or without 2% FBS.” left out
RNA was isolated based on a standard protocol using TRIzol reagent (Vazyme). TRIzol (1ml per 1 well of a 6-well plate) was used to lyse cells and chloroform was added for RNA separation. Samples were shaked vigorously by hand for 15 seconds and incubated at room temperature for 2-3 minutes. RNA was present in the aqueous phase after centrifuge at 12000 x g for 15 minutes. Isopropyl alcohol was mixed to precipitate RNA from the aqueous phase. […] 1 μg total RNA was used for cDNA synthesis using a reverse transcription kit (Bioman). We then measured expression of genes of interest with SYBRR Green qPCR Mix (Bioman) using Applied Biosystems 7500 Quantitative PCR Instrument. Gene expression was normalized to the 18S ribosomal RNA expression and primers were listed in Primers Table.

NRCMs [5] = assay: Calcium staining with Calbryte 520 AM; type: cell-based, rat; settings: 0.5 and 1 h; 10 µM afatinib, 10 µM sorafenib, 5.62 µM ponatinib
NRCMs [6] = assay: Lipid peroxidation by C11-bodipy 581/591 and flow cytometry
Description: as §2

patients = settings: ref Table S1, 2, 4, 26–36; cited from earlier work
Cor.4U hiPSC-CMs [7] = assay: ATP level (CellTiter-Glo) in hiPSC-CMs; type: cell-based, human
Description: ATP content was measured using the CellTiter-Glo Luminescent Cell Viability Assay (Promega) following the manufacturer’s protocol. After adding CellTiter-Glo reagents and incubation, luminescence was quantified using a Synergy H1 plate reader (BioTek Instruments). ATP standards were prepared from 0.01 to 5 μM. For each drug, we fitted a four-parameter log-logistic model to calculate ED50 at day 5 (Fig S1). To rank the cellular toxicity of the eight TKIs (Fig 1T), we calculated (EC50-Cmax)/(EC50+Cmax) and arranged from the smallest to the biggest for increasing cellular toxicity.

Cor.4U hiPSC-CMs [8] = assay: 3'DGE-UMI RNAseq transcriptome of hiPSC-CMs; settings: high PC1 loadings; ponatinib at high dose
[9] = Sprague-Dawley, rat, 24 h, 10 µM

CN(C)C/C=C/C(=O)Nc1cc2c(Nc3ccc(F)c(Cl)c3)ncnc2cc1O[C@H]1CCOC1 [afatinib]
duration of activated eIF2α phosphorylation [1]: 12 h | basal oxygen consumption rate (OCR) (NRCMs [2]): trend of inhibiting basal oxygen consumption rate (OCR) | effect on beat rate, contraction, base impedance and corrected field potential duration (HELP hiPSC-CMs): reduced beat rate and corrected field potential duration | Cmax [3]: 50 nM | increase in percent of ROS-high cells (NRCMs [4]): 14.1% | temporal activation of ER stress genes, 72 versus 24 h (ER stress genes in NRCMs; afatinib 5.62 µM, sorafenib 3.16 μM, ponatinib 1.78 μM): higher expression of Atf4, but a lower expression of Xbp1s and Atf6 at 72- than 24-h treatment | relative activation of the three UPR branches (ER stress genes in NRCMs; high-dose treatment, 24 h): activated the ATF4 axis more robustly than the XBP1s and the ATF6 axes | cytosolic calcium concentration (NRCMs [5]): did not cause any significant changes in calcium concentration | change in percent of cells with high lipid peroxidation (NRCMs [6]): increased slightly | level of lipid peroxidation, TKI alone (NRCMs [6]; [9]): 92.5% | level of lipid peroxidation, TKI with trolox (NRCMs [6]; [9]): 83% | level of cardiotoxicity based on literature reports (patients): low cardiotoxicity | EC50 on cells relative to Cmax in vivo (Cor.4U hiPSC-CMs [7]): ~ 60 folds | effect on ATP levels (Cor.4U hiPSC-CMs [7]; 0.32 to 10 µM, day 1 to day 5): dose-dependent and time-dependent reduction in ATP levels | dose-dependent toxicity (ATP fold changes) (Cor.4U hiPSC-CMs [7]; day 1, different doses, RNAseq conditions): dose-dependent toxicity | time-dependent toxicity (ATP fold changes) (Cor.4U hiPSC-CMs [7]; fixed dose over 5 days, RNAseq conditions): increasing toxicity with treatment duration | expression of genes associated with ER stress (ATF4, NUPR1, DDIT3, TRIB3, CHAC1, SESN2, HERPUD1) (Cor.4U hiPSC-CMs [8]): upregulated | expression of genes related to cardiomyopathy and sarcomeric structure (MYH7, SYNPO2L, LDB3, ACTN2, MYLK3) (Cor.4U hiPSC-CMs [8]): downregulated
